Consider 29 compounds from patent publication US20260130885A1, “ANTIMICROBIAL COMPOSITIONS, PHARMACEUTICAL COMPOSITIONS AND USE THEREOF” (priority 2022, published 2026).

Like-named read-outs stand apart in the source and are kept apart here.

This assay relates to MRSA USA300. Briefly: Antibacterial activity assay (MIC by broth microdilution, MBC by subculture). Format: cell-based, Staphylococcus aureus. As to the method:
The antimicrobial activity was based on MIC and MBC; MIC is the minimum inhibitory concentration and MBC is the minimum bactericidal concentration. The MIC of individual test agents against MRSA USA300 strains was determined using the broth microdilution method according to CLSI guidelines. Briefly, overnight bacterial cultures in LB medium were diluted 1:50 in fresh LB medium and incubated at 37° C. until reaching an OD600 of 0.5 to 0.6. Bacterial suspensions were diluted to a final concentration of 5×10^5 cfu/mL in fresh CAMHB and then exposed to each test agent at increasing doses in triplicate in 96-well plates for 24 hours at 37° C. The MIC of each agent was defined as the lowest concentration without visible bacterial growth. […] The lowest broth dilution that had no viable bacteria was considered the MBC.
Then, the combination effect was measured by calculating their corresponding fractional inhibitory concentration index (FICI) with the equation ΣFIC (FICi)=FICA+FICB=(CombA/MICA)+(CombB/MICB), where MICA and MICB are the MICs of drugs A and B alone, respectively, and CombA and CombB are the concentrations of drugs A and B in combination, respectively. […] was defined as an FICI≤0.5, no interaction was defined as an FICI>0.5-4.0, and antagonism was defined as an FICI>4.
For orientation: Dilution methods test growth across graded concentrations, often in twofold steps.

Setting [1] is: Staphylococcus aureus, amide compound alone, read-out: MBC.
Where [2] appears, read: Staphylococcus aureus, amide compound alone, read-out: MIC.

`O=C(Nc1ccc2c(c1)OCO2)Nc1ccc(Cl)c(C(F)(F)F)c1` [1-159, reference compound]: the MIC (in general, the smallest concentration in the dilution series that meets the test's criterion for growth inhibition) (+8 mg/L DHA) is 0.125 µg/mL and the MIC under setting [2] came out at 32 µg/mL. Further, the MBC – broadly, the lowest tested concentration that kills the bacteria rather than only halting them – under setting [1] worked out at 64 µg/mL.
`O=C(Nc1ccc(Cl)c(C(F)(F)F)c1)Nc1cccc(OF)c1OF` [1-164, reference compound]: the minimum inhibitory concentration (MIC) (+8 mg/L DHA) came to 0.03125 µg/mL and the MIC under setting [2] turned out to be 0.25 µg/mL. Moreover, the minimum bactericidal concentration (MBC) under setting [1] is 4 µg/mL.
With `O=C(Nc1ccc(Oc2ccccc2)cc1)Nc1ccc(Cl)c(C(F)(F)F)c1` [3-006, reference compound], the minimal inhibitory concentration (MIC) reads like this: (+8 mg/L DHA) 0.0078 µg/mL; under setting [2], 0.125 µg/mL. In addition, the MBC under setting [1] worked out at 1 µg/mL.
Take `CC/C=C\C/C=C\C/C=C\C/C=C\C/C=C\CCCC(=O)O` [Eicosapentaenoic acid, eicosapentaenoic acid]: where the note is “Staphylococcus aureus, fatty acid alone, read-out: MBC fatty acid”, the MBC came out at 1020 µg/mL. Further, the MIC (Staphylococcus aureus, fatty acid alone, read-out: MIC fatty acid) turned out to be 64 µg/mL.
In the case of `FC(F)(F)c1cc(Nc2cncc(Nc3ccc(Cl)c(C(F)(F)F)c3)n2)ccc1Cl` [SC5010], the minimal bactericidal concentration (MBC) (+8 mg/L DHA) is greater than 64 µg/mL and the MBC under setting [1] is greater than 64 µg/mL. Besides, the MIC by setting is: (+8 mg/L DHA) greater than 64 µg/mL; under setting [2], greater than 64 µg/mL.
As for `C#Cc1cccc(Nc2cncc(Nc3cccc(C#C)c3)n2)c1` [SC5015], the MBC is greater than 64 µg/mL (+8 mg/L DHA) and greater than 64 µg/mL under setting [1]. The MIC is greater than 64 µg/mL (+8 mg/L DHA) and greater than 64 µg/mL under setting [2].
As for `O=C(Nc1ccc(Cl)c(C(F)(F)F)c1)C1(C(=O)Nc2ccc(Cl)c(C(F)(F)F)c2)CC1` [SC5020], the MBC (+8 mg/L DHA) was 0.125 µg/mL and the minimal bactericidal concentration (MBC) under setting [1] was greater than 64 µg/mL. The MIC (+8 mg/L DHA) amounted to 0.125 µg/mL and the MIC under setting [2] is greater than 64 µg/mL.
Regarding `C#Cc1cccc(NC(=O)C2(C(=O)Nc3cccc(C#C)c3)CC2)c1` [SC5021], the MBC reads like this: (+8 mg/L DHA) 64 µg/mL; under setting [1], greater than 64 µg/mL. For the same compound, the MIC (+8 mg/L DHA) was determined as 64 µg/mL and the minimal inhibitory concentration (MIC) under setting [2] is greater than 64 µg/mL.
Turning to `O=C(Nc1ccccc1)C(CCCl)C(=O)Nc1ccccc1` [SC5022], the MBC is greater than 64 µg/mL (+8 mg/L DHA) and greater than 64 µg/mL under setting [1]. The MIC is greater than 64 µg/mL (+8 mg/L DHA) and greater than 64 µg/mL under setting [2].
As to `O=C(Nc1cccc(C(F)(F)F)c1)C(CCCl)C(=O)Nc1cccc(C(F)(F)F)c1` [SC5023], the MBC is 16 µg/mL (+8 mg/L DHA) and greater than 64 µg/mL under setting [1]. The MIC by setting is: (+8 mg/L DHA) 16 µg/mL; under setting [2], greater than 64 µg/mL.
In the case of `O=C(Nc1ccc(OC(F)(F)F)cc1)C(CCCl)C(=O)Nc1ccc(OC(F)(F)F)cc1` [SC5024], the MBC (+8 mg/L DHA) is 8 µg/mL and the MBC under setting [1] is greater than 64 µg/mL. Further, the MIC by setting is: (+8 mg/L DHA) 8 µg/mL; under setting [2], greater than 64 µg/mL.
On to `O=C(Nc1cc(Cl)cc(Cl)c1)C(CCCl)C(=O)Nc1cc(Cl)cc(Cl)c1` [SC5025], for which the MBC by setting is: (+8 mg/L DHA) 2 µg/mL; under setting [1], 32 µg/mL. The MIC came to 2 µg/mL (+8 mg/L DHA) and 16 µg/mL under setting [2].
Consider `C#Cc1cccc(NC(=O)C(CCCl)C(=O)Nc2cccc(C#C)c2)c1` [SC5026], for which the minimum bactericidal concentration (MBC) reads like this: (+8 mg/L DHA) greater than 64 µg/mL; under setting [1], greater than 64 µg/mL. In addition, the MIC is greater than 64 µg/mL (+8 mg/L DHA) and greater than 64 µg/mL under setting [2].
Turning to `O=C(Nc1cccc(Cl)c1)C(CCCl)C(=O)Nc1cccc(Cl)c1` [SC5027], the MBC by setting is: (+8 mg/L DHA) greater than 64 µg/mL; under setting [1], greater than 64 µg/mL. For the same compound, the MIC by setting is: (+8 mg/L DHA) 64 µg/mL; under setting [2], greater than 64 µg/mL.
Regarding `O=C(Nc1ccc([N+](=O)[O-])c(C(F)(F)F)c1)C(CCCl)C(=O)Nc1ccc([N+](=O)[O-])c(C(F)(F)F)c1` [SC5034], the MBC was 1 µg/mL (+8 mg/L DHA) and 32 µg/mL under setting [1]. Also, the MIC was found to be 1 µg/mL (+8 mg/L DHA) and 16 µg/mL under setting [2].
For `O=C(Nc1cc(Cl)cc(Cl)c1)C(CCCl)C(=O)Nc1ccc(Cl)c(C(F)(F)F)c1` (stereo not drawn) [SC5035], the minimal bactericidal concentration (MBC) (+8 mg/L DHA) is 2 µg/mL and the MBC under setting [1] worked out at 32 µg/mL. Moreover, the MIC reads like this: (+8 mg/L DHA) 1 µg/mL; under setting [2], 16 µg/mL.
`C=CCC(C(=O)Nc1ccc(Cl)c(C(F)(F)F)c1)C(=O)Nc1ccc(Cl)c(C(F)(F)F)c1` [SC5037]: the MBC (+8 mg/L DHA) turned out to be 0.0078 µg/mL and the MBC under setting [1] turned out to be 2 µg/mL. Moreover, the minimal inhibitory concentration (MIC) reads like this: (+8 mg/L DHA) 0.0039 µg/mL; under setting [2], 1 µg/mL.
On to `C#Cc1cccc(NC(=O)C(CC=C)C(=O)Nc2cccc(C#C)c2)c1` [SC5038], for which the MBC by setting is: (+8 mg/L DHA) greater than 64 µg/mL; under setting [1], greater than 64 µg/mL. The MIC reads like this: (+8 mg/L DHA) greater than 64 µg/mL; under setting [2], greater than 64 µg/mL.
As to `C=CCC(C(=O)Nc1cc(Cl)cc(Cl)c1)C(=O)Nc1cc(Cl)cc(Cl)c1` [SC5040], the MBC is, setting by setting: (+8 mg/L DHA) 0.125 µg/mL; under setting [1], 2 µg/mL. Besides, the MIC by setting is: (+8 mg/L DHA) 0.0039 µg/mL; under setting [2], 1 µg/mL.
For `O=C(Nc1cc(Cl)cc(Cl)c1)C(CCCl)C(=O)Nc1ccc([N+](=O)[O-])c(C(F)(F)F)c1` (stereo not drawn) [SC5041], the MBC (+8 mg/L DHA) was 0.0625 µg/mL and the MBC under setting [1] turned out to be 2 µg/mL. In addition, the MIC (+8 mg/L DHA) is 0.0625 µg/mL and the MIC under setting [2] is 0.5 µg/mL.
On to `O=C(Nc1cc(Cl)cc(Cl)c1)C(Cc1ccccc1)C(=O)Nc1cc(Cl)cc(Cl)c1` [SC5043], for which the MBC (+8 mg/L DHA) was found to be 0.0156 µg/mL and the MBC under setting [1] was 4 µg/mL. The minimal inhibitory concentration (MIC) runs as follows: (+8 mg/L DHA) 0.0156 µg/mL; under setting [2], 2 µg/mL.
`O=C(Nc1cc(C(F)(F)F)cc(C(F)(F)F)c1)C(Cc1ccccc1)C(=O)Nc1cc(C(F)(F)F)cc(C(F)(F)F)c1` [SC5044]: the MBC (+8 mg/L DHA) amounted to 0.0078 µg/mL and the MBC under setting [1] worked out at 2 µg/mL. Moreover, the MIC was determined as 0.000975 µg/mL (+8 mg/L DHA) and 0.5 µg/mL under setting [2].
In the case of `O=C(NC1CCCCC1)C(CCCl)C(=O)NC1CCCCC1` [SC5048], the MBC was greater than 64 µg/mL (+8 mg/L DHA) and greater than 64 µg/mL under setting [1]. For the same compound, the MIC (+8 mg/L DHA) was greater than 64 µg/mL and the minimal inhibitory concentration (MIC) under setting [2] is greater than 64 µg/mL.
As to `CCCNC(=O)C(CCCl)C(=O)Nc1ccc(Cl)c(C(F)(F)F)c1` (stereo not drawn) [SC5049], the MBC by setting is: (+8 mg/L DHA) 8 µg/mL; under setting [1], greater than 64 µg/mL. The minimal inhibitory concentration (MIC) reads like this: (+8 mg/L DHA) 8 µg/mL; under setting [2], greater than 64 µg/mL.
Turning to `C=CCNC(=O)C(CCCl)C(=O)Nc1ccc(Cl)c(C(F)(F)F)c1` (stereo not drawn) [SC5050], the minimal bactericidal concentration (MBC) by setting is: (+8 mg/L DHA) 16 µg/mL; under setting [1], greater than 64 µg/mL. Moreover, the minimum inhibitory concentration (MIC) runs as follows: (+8 mg/L DHA) 8 µg/mL; under setting [2], greater than 64 µg/mL.
For `C=CCNC(=O)C(CCCl)C(=O)NCC=C` [SC5052], the MBC was 2 µg/mL (+8 mg/L DHA) and greater than 64 µg/mL under setting [1]. For the same compound, the MIC is, setting by setting: (+8 mg/L DHA) 1 µg/mL; under setting [2], greater than 64 µg/mL.
With `O=C(Nc1ccc(Cl)c(C(F)(F)F)c1)C(CCCl)C(=O)NC1CCCCC1` (stereo not drawn) [SC5053], the MBC (+8 mg/L DHA) stood at 2 µg/mL and the MBC under setting [1] is greater than 64 µg/mL. For the same compound, the MIC (+8 mg/L DHA) amounted to 1 µg/mL and the MIC under setting [2] was greater than 64 µg/mL.
As to `CN(C(=O)C(CCCl)C(=O)N(C)c1ccc(Cl)c(C(F)(F)F)c1)c1ccc(Cl)c(C(F)(F)F)c1` [SC5101], the minimum bactericidal concentration (MBC) was greater than 64 µg/mL (+8 mg/L DHA) and greater than 64 µg/mL under setting [1]. In addition, the MIC reads like this: (+8 mg/L DHA) greater than 64 µg/mL; under setting [2], greater than 64 µg/mL.
With `CN(C(=O)C(CCCl)C(=O)N(C)c1cc(Cl)cc(Cl)c1)c1cc(Cl)cc(Cl)c1` [SC5102], the MBC (+8 mg/L DHA) is greater than 64 µg/mL and the minimal bactericidal concentration (MBC) under setting [1] was greater than 64 µg/mL. In addition, the MIC is greater than 64 µg/mL (+8 mg/L DHA) and greater than 64 µg/mL under setting [2].
